Data: patent publication US20190010461A1, “HUMAN PLURIPOTENT STEM CELL-BASED SCREENING FOR SMOOTH MUSCLE CELL DIFFERENTIATION AND DISEASE” (Wisconsin Alumni Research Foundation, priority 2017, published 2019)

How the values were obtained:
[1] = tested on: MYH11 promoter-driven luciferase activity; assay: High-throughput screening, MYH11-Nluc-2A-Tom reporter human ES cell line, luciferase assay; assay type: cell-based
Procedure: FIGS. 1A-1C depict a schematic of high-throughput screening. […] The cells were passaged at day 4 and seeded on the 96-well plate for screening (2×10^6 cells/plate). After the reporter cell line was differentiated into mesoderm, small molecules were added to the cells from day 4 to day 14. FIG. 1B depicts the results of the screening in two batches. The luciferase assay results of individual small molecules were normalized to the average reads of all samples for each batch. The small molecules were selected for further analysis when the normalized reads were greater than “average+3×STDEV”. FIG. 1C depicts optimizing the concentration of the selected small molecules.
The cells were treated with 50 ng/ml FGF2 and 20 ng/ml BMP4 for another two days. The cells were passaged at day 4 and seeded on the 96-well plate for screening (2×10^6 cells/plate). The compounds were added from day 4-14. The Luciferase substrate (1000× dilution) (Nano-Glo Luciferase Assay system, Promega) was added to the medium for 15 min and luminescence was measured. An increase in luminescence indicates increased MYH11 expression, which is an indicator of the contractile smooth muscle cell phenotype. The Thomson custom stem cell Modulator 1, GSK-kinase inhibitor library, SellekChem Kinase inhibitor library, Analyticon NATx library, Prestwick Chemical Library, GlaxoSmithKline Protein Kinase Inhibitors, and part of Enamine Representative Diversity library were used for screening.
High-throughput screening directs contractile smooth muscle cell differentiation—The construction of the MYH11-NLuc-tdTomato human ES cell reporter line generated by CRISPR/Cas9 technology is described in FIGS. 6A-6H. The reporter cell line was differentiated into mesoderm in E8BAC medium (Zhang et al., 2017) for two days and treated with FGF2 and BMP4 to further mature mesoderm for another two days. The cells were then passaged into a 96-well plate and exposed to small molecules for 10 days using a customized robotic workstation (FIG. 1A). The workstation was designed through collaboration with TECAN, which enables us to perform the automatic high-throughput screening at specific time point and in long-term. The medium were changed every other day and the small molecules were added during the feeding. […] We then validated these hits and optimized their concentration.

[2] = tested on: primary human aortic SMCs (AoSMCs)
Text: Scale bar=500 μm. […] Scale bar=100 μm. […] Data are represented as mean±SD.

Cc1cccc(-c2n[nH]cc2-c2ccc3ncccc3n2)n1 [RepSox, RepSox (SJN 2511)]
effectiveness at promoting MYH11 expression among validated hits ([1]; hits validated, concentration optimized): most effective | promotes MYH11+ SMC differentiation (increased MYH11 promoter-driven luciferase activity) ([1]; small molecules added day 4-14, selected when normalized reads > average+3×STDEV): promotes MYH11^+ SMC differentiation | contractile gene expression of AoSMCs ([2]; 100 μM RepSox for three days versus DMSO): increase | proliferation rate of AoSMCs ([2]; 100 μM RepSox for two days versus DMSO): reduced | contraction ability of AoSMCs ([2]; 100 μM RepSox for two days, then 100 μM carbachol): without affecting | cell migration rate of AoSMCs ([2]; 100 μM RepSox versus DMSO): reduced
